In US7964607B2, “Pyrazolo[3,4-d]pyrimidine compounds” (Pfizer Inc., priority 2007, dated 2011):
Where two headings read alike, the source gives them in different places.

Biological target: T1, human recombinant PDE9 enzyme (Homo sapiens, UniProt O76083)
T1 construct: made in house; host or cells: SF-9 insect cells
Assay: Phosphodiesterase 9 (PDE9) inhibitory activity, Scintillation Proximity (SPA) assay
Assay type: biochemical
Outline: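 Scintillation proximity read-out of [3H]cGMP hydrolysis after 30 min at room temperature, with enzyme addition starting the reaction. The enzyme was human recombinant PDE9 expressed in SF-9 cells, titrated to keep substrate turnover at 20% or less. Compound wells held 2% DMSO final, and background was defined with excess PDE inhibitor.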

[1] = human recombinant PDE9 from SF-9 cells, 50 nM [3H]cGMP, room temperature, 30 min, additional compounds Ex. 115-228, read-out: G5678A (U):IC50
[2] = human recombinant PDE9 from SF-9 cells, 50 nM [3H]cGMP, room temperature, 30 min, Examples 3-114, read-out: G5678A (U): IC50

T1 sequence (O76083 whole entry): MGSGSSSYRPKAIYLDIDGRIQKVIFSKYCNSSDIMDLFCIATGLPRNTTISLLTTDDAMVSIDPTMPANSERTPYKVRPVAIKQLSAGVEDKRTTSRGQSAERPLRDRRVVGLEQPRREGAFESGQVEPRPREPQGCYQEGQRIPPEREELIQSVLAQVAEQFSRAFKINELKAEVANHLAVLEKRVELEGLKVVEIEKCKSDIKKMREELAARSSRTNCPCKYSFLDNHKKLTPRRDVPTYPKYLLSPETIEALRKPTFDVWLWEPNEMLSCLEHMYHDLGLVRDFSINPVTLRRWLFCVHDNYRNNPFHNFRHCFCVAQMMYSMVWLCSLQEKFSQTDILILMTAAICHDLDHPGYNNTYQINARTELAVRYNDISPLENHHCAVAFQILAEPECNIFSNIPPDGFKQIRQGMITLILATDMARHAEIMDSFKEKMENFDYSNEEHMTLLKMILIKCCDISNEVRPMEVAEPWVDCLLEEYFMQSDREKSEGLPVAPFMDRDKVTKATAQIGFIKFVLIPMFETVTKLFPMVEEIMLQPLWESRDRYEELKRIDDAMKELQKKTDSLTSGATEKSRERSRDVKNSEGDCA

| SMILES | IC50 [1] [µM] | IC50 [2] [µM] | other results |
| --- | --- | --- | --- |
| CC[C@@H]1CN(Cc2ccccn2)C[C@H]1c1nc2c(cnn2C2CCOCC2)c(=O)[nH]1 [Example 109, 6-[(3S,4S)-4-ethyl-1-(pyridin-2-ylmethyl)pyrrolidin-3-yl]-1-(tetrahydro-2H-pyran-4-yl)-1,5-dihydro-4H-pyrazolo[3,4-d]pyrimidin-4-one] |  | 0.00421 |  |
| COc1ccc(CN2C[C@@H](C)[C@H](c3nc4c(cnn4C(C)C)c(=O)[nH]3)C2)cn1 [Example 43, 1-isopropyl-6-{(3S,4S)-1-[(6-methoxypyridin-3-yl)methyl]-4-methylpyrrolidin-3-yl}1,5-dihydro-4H-pyrazolo[3,4-d]pyrimidin-4-one] |  | 0.0364 |  |
| Cc1ncc(CN2C[C@@H](C)[C@H](c3nc4c(c(C)nn4C4CCOCC4)c(=O)[nH]3)C2)cn1 [Example 93, 3-methyl-6-{(3S,4S)-4-methyl-1-[(2-methylpyrimidin-5-yl)methyl]pyrrolidin-3-yl}-1-(tetrahydro-2H-pyran-4-yl)-1,5-dihydro-4H-pyrazolo[3,4-d]pyrimidin-4-one] |  | 0.0243 |  |
| C[C@@H]1CN(Cc2ccc(C(F)(F)F)nc2)C[C@H]1c1nc2c(cnn2C2CCOCC2)c(=O)[nH]1 [Example 80, 6-[(3S,4S)-4-methyl-1-{[6-(trifluoromethyl)pyridin-3-yl]methyl}pyrrolidin-3-yl]-1-(tetrahydro-2H-pyran-4-yl)-1,5-dihydro-4H-pyrazolo[3,4-d]pyrimidin-4-one] |  | 0.00372 |  |
| Cc1cccc(CN2C[C@@H](C)[C@H](c3nc4c(cnn4C4CCCC4)c(=O)[nH]3)C2)c1C (racemic) [Example 118, 1-cyclopentyl-6-[(3,4-trans)-1-(2,3-dimethylbenzyl)-4-methylpyrrolidin-3-yl]-1,5-dihydro-4H-pyrazolo[3,4-d]pyrimidin-4-one] | 0.074 |  |  |
| Cc1cnc(CN2C[C@@H](C)[C@H](c3nc4c(cnn4C4CCCC4)c(=O)[nH]3)C2)cn1 [Example 38, 1-cyclopentyl-6-{(3S,4S)-4-methyl-1-[(5-methylpyrazin-2-yl)methyl]pyrrolidin-3-yl}-1,5-dihydro-4H-pyrazolo[3,4-d]pyrimidin-4-one] |  | 0.00575 |  |
| CC(C)n1ncc2c(=O)[nH]c([C@@H]3CN(Cc4cnc5ccccc5c4)C[C@H]3C)nc21 [Example 37, 1-isopropyl-6-[(3S,4S)-4-methyl-1-(quinolin-3-ylmethyl)pyrrolidin-3-yl]-1,5-dihydro-4H-pyrazolo[3,4-d]pyrimidin-4-one] |  | 0.00323 |  |
| CC[C@@H]1CN(Cc2ccc(OC)nc2)C[C@H]1c1nc2c(cnn2C(C)C)c(=O)[nH]1 (racemic) [Example 45, 6-{(3,4-trans)-4-ethyl-1-[(6-methoxypyridin-3-yl)methyl]pyrrolidin-3-yl}-1-isopropyl-1,5-dihydro-4H-pyrazolo[3,4-d]pyrimidin-4-one] |  | 0.0387 |  |
| CCC1CN(Cc2ccccc2)CC1c1nc2c(cnn2C2CCOCC2)c(=O)[nH]1 (racemic) [97(a), 6-[(3,4-trans)-1-benzyl-4-ethylpyrrolidin-3-yl]-1-(tetrahydro-2H-pyran-4-yl)-1,5-dihydro-4H-pyrazolo[3,4-d]pyrimidin-4-one] |  |  | IC50: 0.0072 µM |
| C[C@@H]1CN(Cc2ccc3nsnc3c2)C[C@H]1c1nc2c(cnn2C2CCOCC2)c(=O)[nH]1 [Example 84, 6-[(3S,4S)-1-(2,1,3-benzothiadiazol-5-ylmethyl)-4-methylpyrrolidin-3-yl]-1-(tetrahydro-2H-pyran-4-yl)-1,5-dihydro-4H-pyrazolo[3,4-d]pyrimidin-4-one] |  | 0.00187 |  |
| C[C@@H]1CN(Cc2cc3ccccc3nn2)C[C@H]1c1nc2c(cnn2C2CCCC2)c(=O)[nH]1 [Example 51, 6-[(3S,4S)-1-(cinnolin-3-ylmethyl)-4-methylpyrrolidin-3-yl]-1-cyclopentyl-1,5-dihydro-4H-pyrazolo[3,4-d]pyrimidin-4-one] |  | 0.00819 |  |
| Cc1cccc(CN2C[C@@H](C)[C@H](c3nc4c(cnn4C4CCOCC4)c(=O)[nH]3)C2)n1 [Example 95, 6-{(3S,4S)-4-methyl-1-[(6-methylpyridin-2-yl)methyl]pyrrolidin-3-yl}-1-(tetrahydro-2H-pyran-4-yl)-1,5-dihydro-4H-pyrazolo[3,4-d]pyrimidin-4-one] |  | 0.00392 |  |
| Cc1ccc(CN2C[C@@H](C)[C@H](c3nc4c(cnn4C4CCCC4)c(=O)[nH]3)C2)cc1F (relative stereo) [Example 143, 1-cyclopentyl-6-[(3,4-trans)-1-(3-fluoro-4-methylbenzyl)-4-methylpyrrolidin-3-yl]-1,5-dihydro-4H-pyrazolo[3,4-d]pyrimidin-4-one] | 0.0351 |  |  |

Now from value to compound, other results behind:

| IC50 [1] [µM] | IC50 [2] [µM] | SMILES | other results |
| --- | --- | --- | --- |
| 0.0307 |  | CCc1ncc(CN2C[C@@H](C)[C@H](c3nc4c(cnn4C4CCCC4)c(=O)[nH]3)C2)cn1 (racemic) [Example 168, 1-cyclopentyl-6-{(3,4-trans)-1-[(2-ethylpyrimidin-5-yl)methyl]-4-methylpyrrolidin-3-yl}-1,5-dihydro-4H-pyrazolo[3,4-d]pyrimidin-4-one] |  |
| 0.165 |  | COc1cccc(F)c1CN1C[C@@H](C)[C@H](c2nc3c(cnn3C3CCCC3)c(=O)[nH]2)C1 (racemic) [Example 146, 1-cyclopentyl-6-[(3,4-trans)-1-(2-fluoro-6-methoxybenzyl)-4-methylpyrrolidin-3-yl]-1,5-dihydro-4H-pyrazolo[3,4-d]pyrimidin-4-one] |  |
| 0.116 |  | C[C@@H]1CN(Cc2ccccc2OC(F)(F)F)C[C@H]1c1nc2c(cnn2C2CCCC2)c(=O)[nH]1 (racemic) [Example 224, 1-cyclopentyl-6-{(3,4-trans)-4-methyl-1-[2-(trifluoromethoxy)benzyl]pyrrolidin-3-yl}-1,5-dihydro-4H-pyrazolo[3,4-d]pyrimidin-4-one] |  |
| 0.0746 |  | CCn1cc(CN2C[C@@H](C)[C@H](c3nc4c(cnn4C4CCCC4)c(=O)[nH]3)C2)cn1 (racemic) [Example 170, 1-cyclopentyl-6-{(3,4-trans)-1-[(1-ethyl-1H-pyrazol-4-yl)methyl]-4-methylpyrrolidin-3-yl}-1,5-dihydro-4H-pyrazolo[3,4-d]pyrimidin-4-one] |  |
| 0.00998 |  | Cc1nc(C)c(CN2C[C@@H](C)[C@H](c3nc4c(cnn4C4CCCC4)c(=O)[nH]3)C2)nc1C (racemic) [Example 212, 1-cyclopentyl-6-{(3,4-trans)-4-methyl-1-[(3,5,6-trimethylpyrazin-2-yl)methyl]pyrrolidin-3-yl}-1,5-dihydro-4H-pyrazolo[3,4-d]pyrimidin-4-one] |  |
| 0.0534 |  | C[C@@H]1CN(Cc2cccc(Cl)c2F)C[C@H]1c1nc2c(cnn2C2CCCC2)c(=O)[nH]1 (racemic) [Example 163, 6-[(3,4-trans)-1-(3-chloro-2-fluorobenzyl)-4-methylpyrrolidin-3-yl]-1-cyclopentyl-1,5-dihydro-4H-pyrazolo[3,4-d]pyrimidin-4-one] |  |
| 0.0887 |  | C[C@@H]1CN(Cc2cccc3c2OCC3)C[C@H]1c1nc2c(cnn2C2CCCC2)c(=O)[nH]1 (racemic) [Example 126, 1-cyclopentyl-6-[(3,4-trans)-1-(2,3-dihydro-1-benzofuran-7-ylmethyl)-4-methylpyrrolidin-3-yl]-1,5-dihydro-4H-pyrazolo[3,4-d]pyrimidin-4-one] |  |
| 0.0601 |  | Cc1ccc(C)c(CN2C[C@@H](C)[C@H](c3nc4c(cnn4C4CCCC4)c(=O)[nH]3)C2)c1 (racemic) [Example 162, 1-cyclopentyl-6-[(3,4-trans)-1-(2,5-dimethylbenzyl)-4-methylpyrrolidin-3-yl]-1,5-dihydro-4H-pyrazolo[3,4-d]pyrimidin-4-one] |  |
